# Measurements: PMC3948622, “Docking, Synthesis and Antiproliferative Activity of N-Acylhydrazone Derivatives Designed as Combretastatin A4 Analogues” (PLoS ONE, 2014)
# Read-outs that look alike come from different tables or passages of the source.
# What was measured:
# [1] = tested on: HCT-116 (colon carcinoma); test: Hollow Fiber Assay (HFA), HCT-116 fibers s.c. in mice; assay type: in vivo, BALB/c nude mice; details: 4 days; for Proliferation (OD595 nm) HCT-116: mean ± S.E.M.
# Procedure: (§1) Cell culture of SF-295 (glioblastoma) and HCT-116 (colon carcinoma) was performed in RPMI 1640 medium supplemented with 10% fetal bovine serum, 2 mM glutamine, at 37°C with 5% CO2.
# (§2) Polyvinylidene fluoride (PVDF) HFs with a 1-mm internal diameter and a molecular weight cutoff point of 500 kDa were used (Spectrum Laboratories, Houston, TX). The fibers were cut into pieces 12–15 cm long, washed 2× with sterile distilled water and kept in sterile conditions.
# (§3) Before use, under sterile conditions, the fibers were incubated in complete RPMI with 20% fetal bovine serum (FBS) overnight (packaging time). Cell viability was assessed by trypan blue exclusion assay. Then, a cell suspension of 7.0×10^6 cell/mL at 4°C was injected into the fiber, with the ends thereof immediately heat-sealed. The fibers were cut into 2 cm each, transferred to petri plates and incubated in complete RPMI medium for 24 h prior to implantation in mice. Each cell was injected into one fiber of a different color (HCT-116, yellow fibers; SF-295, blue fibers).
# (§4) Each animal received 2 fibers at s.c. site. All incisions were sealed with a surgical stapler.
# (§5) Tumor cell proliferation was quantified through the ability of living cells to reduce the yellow dye 3-(4,5-dimethyl-2-thiazolyl)-2,5-diphenyl-2H-tetrazolium bromide (MTT, Sigma Aldrich) to a purple formazan product. For this purpose, the fibers removed from animals were incubated with MTT 1 mg/mL in 6-well plates during 4 h at 37°C, 5% CO2 and 95% humidity. The MTT solution was aspirated; fibers were washed with saline solution containing protamine sulphate 2.5% and incubated in protamine solution overnight at 4°C. Fibers were transferred to 24 well plates, cut into 2 or 3 pieces and put to dry. The formazan was dissolved in […] of DMSO, aliquots (150 uL) were transferred to 96 well plates and absorbance was measured at 595 nm (DTX-880, Beckman Coulter).
# [2] = tested on: SF-295 (human glioblastoma); test: In vitro antiproliferative MTT assay, SF-295; assay type: cell-based
# Procedure: (§6) The antiproliferative activity of compounds 5a–r was determined based on an MTT assay and using CA-4 as standard against the tumor cell lines: HL-60 (human leukemia), SF-295 (human glioblastoma), MDA-MB435 (melanoma), PC3M (prostate cancer), OVCAR-8 (ovaries adenocarcinoma), NCI-H258M (pulmonary bronchio-alveolar carcinoma) and HCT-8 (adenocarcinoma ileocecal) (Table 2). To determine the selectivity index of compounds 5a–r, their antiproliferative profile was also evaluated toward human lymphocytes (Table 2).
# (§7) Compounds (0.009–5 µg/mL) were tested for cytotoxic activity against selected cancer cell lines: SF-295 (glioblastoma), HCT-8 (colon), MDAMB-435 (melanoma), HL60 (leukemia), PC3M (prostate cancer), OVCAR-8 (ovaries adenocarcinoma) and NCI-H258M (pulmonary bronchio-alveolar carcinoma). All cell lines were kindly obtained from the National Cancer Institute (Bethesda, MD, USA).Tumor cell proliferation was quantified through the ability of living cells to reduce the yellow dye 3-(4,5-dimethyl-2-thiazolyl)-2,5-diphenyl-2H-tetrazolium bromide (MTT, Sigma Aldrich)) to a purple formazan product and absorbance was measured at 595 nm (DTX-880, Beckman Coulter).
# [3] = tested on: MDA-MB435 (melanoma); test: In vitro antiproliferative MTT assay, MDA-MB435; assay type: cell-based
# Procedure: as §6, §7
# [4] = tested on: HCT-8 (adenocarcinoma ileocecal); test: In vitro antiproliferative MTT assay, HCT-8; assay type: cell-based
# Procedure: as §6, §7
# [5] = tested on: PC3M (prostate cancer); test: In vitro antiproliferative MTT assay, PC3M; assay type: cell-based
# Procedure: as §6, §7
# [6] = tested on: BALB/c nude mice; details: for Survival: 4 days
# Procedure: During the HFA, tumor cells (i.e., SF-295 and HCT-116) were cultivated within biocompatible, semipermeable polyvinylidene fluoride hollow fibers (HFs) and subcutaneously (s.c.) implanted within the dorsal portion of BALB/c nude mice. LASSBio-1586 (5b) and 5-Fluorouracil (5-FU), which was the positive control, were administered intraperitoneally for 4 consecutive days. On day 5, the fibers were removed to quantify the antiproliferative activity of 5b and 5-FU.
# A total of 26 female BALB/c nude (nu/nu) mice aging 6–8 weeks were obtained from the animal facilities of State University of São Paulo (USP), Faculty of Medicine, São Paulo (SP), Brazil. They were kept in well-ventilated and sterile cages (Alesco, São Paulo) under standard conditions of light (12 h with alternative day and night cycles) and temperature (22±1°C) and were housed with access to commercial sterile rodent stock diet (Nutrilabor, São Paulo, Brazil) and water ad libitum. As previously mentioned procedures are in accordance with guidelines for the welfare of animals in experimental neoplasia and with national and international standard on the care and use of experimental laboratory animals and were approved by the local Ethical Committee on Animal Research (Process No. 102/2007).
# Mice were anaesthetized with ketamine (90 mg/kg) - xylazine (4.5 mg/kg) (Sigma Aldrich). Groups were divided into: a) Negative control (DMSO 5%, n = 6); b) Positive control (5-Flouoruracil, 5-FU, 25 mg/kg/day, n = 7) (Sigma Aldrich); c) LASSBio-1586 (5b; 25 mg/kg/day, n = 7); d) LASSBio-1586 (5b; 50 mg/kg/day, n = 6). A small incision in the neck was incised to permit subcutaneous (s.c.) implantation of the fibers in the dorsal part of the animal. Each animal received 2 fibers at s.c. site. All incisions were sealed with a surgical stapler. The test compounds were administered intraperitoneally during 4 consecutive days. On day 5, fibers were removed to quantify the antiproliferative capacity as described above.
# [7] = tested on: SF-295 (glioblastoma); test: Hollow Fiber Assay (HFA), SF-295 fibers s.c. in mice; assay type: in vivo, BALB/c nude mice; details: 4 days; for Proliferation (OD595 nm) SF-295: mean ± S.E.M.
# Procedure: as §1, §2, §3, §4, §5
# [8] = tested on: human lymphocytes; test: In vitro antiproliferative assay, human lymphocytes; assay type: cell-based; details: Lymphocyte, Table 2
# Procedure: as §6
# To investigate the selective cytotoxic activity of the N-acylhydrazones derivatives (5a–r), their antiproliferative potency was also assessed toward human lymphocytes and the results were compared to the data from CA-4 ([…]). The selectivity index (SI), which was the IC50 for human lymphocytes/IC50 for cancer cell lines after treatment with CA-4 and N-acylhydrazones (5a–r), was calculated, as depicted in Table 3. […] The best comparative selectivity indices (CA-4 vs 5b) were obtained from the SF-295 (SI = 13), MDA-MB435 (SI = 42) and NCI-H258M (SI = 9.5) tumor cell lines, and the worst results were found for OVCAR-8 (SI = 0.5).
# [9] = IC50 for human lymphocytes/IC50 for cancer cell line
# [10] = SI of 5b relative to SI of CA-4
structure (smiles),measurement,setting,value
"COc1cc(C(=O)N/N=C/c2ccccc2)cc(OC)c1OC [Compound 5b, (E)-N′benzylidene-3,4,5-trimetoxybenzohydrazide]",Inhibition (%) HCT-116,[1]; 25 mg/kg/day intraperitoneally,82.89%
same,Proliferation (OD595 nm) HCT-116,[1]; 25 mg/kg/day intraperitoneally,0.26±0.04 OD595 nm
same,Inhibition (%) HCT-116,[1]; 50 mg/kg/day intraperitoneally,80.76%
same,Proliferation (OD595 nm) HCT-116,[1]; 50 mg/kg/day intraperitoneally,0.29±0.05 OD595 nm
same,IC50,"[2]; Homo sapiens, SF-295, Table 2, MTT, read-out: IC50 SF295",260 nM
same,SI Lymphocyte/ SF-295,[2]; [9],4.88±0.42
same,comparative selectivity index (CA-4 vs 5b) SF-295,[2]; [10],13
same,SI Lymphocyte/ MDA-MB345,[3]; [9],20.07±0.93
same,comparative selectivity index (CA-4 vs 5b) MDA-MB435,[3]; [10],42
same,IC50,"[4]; Homo sapiens, HCT-8, Table 2, MTT",450 nM
same,SI Lymphocyte/ HCT-8,[4]; [9],2.86±0.13
same,IC50,"[5]; Homo sapiens, PC-3M, Table 2, MTT",800 nM
same,SI Lymphocyte/ PC3M,[5]; [9],1.60±0.10
same,Survival,[6]; 25 mg/kg/day intraperitoneally,7/7
same,Survival,[6]; 50 mg/kg/day intraperitoneally,6/6
same,deaths of mice during treatment,"[6]; intraperitoneally for 4 consecutive days, HFA",no deaths occurred
same,Inhibition (%) SF-295,[7]; 25 mg/kg/day intraperitoneally,61.89%
same,Proliferation (OD595 nm) SF-295,[7]; 25 mg/kg/day intraperitoneally,0.57±0.05 OD595 nm
same,Inhibition (%) SF-295,[7]; 50 mg/kg/day intraperitoneally,72.68%
same,Proliferation (OD595 nm) SF-295,[7]; 50 mg/kg/day intraperitoneally,0.41±0.06 OD595 nm
same,IC50,[8],1340 nM
